The source of these data is patent US8067435B2, “Nitrogen-containing heterocyclic compounds, their preparation and their use as antibacterial drugs” (AstraZeneca AB, priority 2008, dated 2011).

Structures are written as SMILES. Values after ≈ are worked out from the molar mass of the structure shown.

One assay relates to Pseudomonas aeruginosa (1771 Strain of the wild type). The experiment in a line: Activity in vitro, method of dilutions in a liquid medium (MIC). In kind it is cell-based. As to conditions: Pseudomonas aeruginosa 1771 wild type; liquid medium dilution; 24 hrs incubation at 37° C. The protocol: Activity in vitro, method of dilutions in a liquid medium: A series of tubes is prepared in which the same amount of sterile nutritive medium is distributed, increasing amounts of the product to be studied are distributed in each tube, and each tube is then sown with a bacterial strain. After incubation for 24 hrs in the oven at 37° C., inhibition of growth is appreciated by trans-illumination, which allows determination of the minimum inhibitory concentrations (MICs) expressed in μg/ml.
Thus tests are carried out with the products of Examples 1 to 8 in comparison with products of Examples 7, 9, 11 and 45 of application WO 04/052891. […] The activity difference on Pseudomonas aeruginosa between the products of the invention and the closest products from the prior art is located according to the products in a range from 16 to more than 500.
Activity on Pseudomonas aeruginosa (1771 Strain of the wild type)
Turning to `NC[C@@H]1c2nn(C(N)=O)cc2[C@H]2CN1C(=O)N2OS(=O)(=O)O.O=C([O-])C(F)(F)F.[Na+]` (relative stereo) [Ex 1, Sodium trifluoroacetate salt of trans 8-(aminomethyl)-2-carbamoyle-4,8-dihydro-5-(sulfooxy)-4,7-methano-7H-pyrazolo[3,4-e][1,3]diazepin-6(5H)-one], the “MIC (μg/mL) 24 h (P, aerug, 1771)” value is 0.25 µg/mL.

`CN(C)C(=O)n1cc2c(n1)[C@@H](CN)N1C[C@H]2N(OS(=O)(=O)O)C1=O.O=C([O-])C(F)(F)F.[Na+]` (relative stereo) [Ex 2, Sodium trifluoroacetate salt of trans 8-(aminomethyl)-2-dimethylcarbamoyle-4,8-dihydro-5-(sulfooxy)-4,7-methano-7H-pyrazolo[3,4-e][1,3]diazepin-6(5H)-one]: the “MIC (μg/mL) 24 h (P, aerug, 1771)” value came to 2 µg/mL.

Regarding `CNC(=O)n1cc2c(n1)[C@@H](CN)N1C[C@H]2N(OS(=O)(=O)O)C1=O.O=C([O-])C(F)(F)F.[Na+]` (relative stereo) [Ex 3, Sodium trifluoroacetate salt of trans 8-(aminomethyl)-2-methylcarbamoyl-4,8-dihydro-5-(sulfooxy)-4,7-methano-7H-pyrazolo[3,4-e][1,3]diazepin-6(5H)-one], the “MIC (μg/mL) 24 h (P, aerug, 1771)” value is 2 µg/mL.

In the case of `NCCn1ncc2c1[C@@H](CN)N1C[C@H]2N(OS(=O)(=O)O)C1=O.O=C([O-])C(F)(F)F.[Na+]` (relative stereo) [Ex 4, Sodium trifluoroacetate salt of trans 8-(aminomethyl)-1-(2-amino-ethyl)-4,8-dihydro-5-(sulfooxy)-4,7-methano-7H-pyrazolo[3,4-e][1,3]diazepin-6(5H)-one], the “MIC (μg/mL) 24 h (P, aerug, 1771)” value turned out to be 0.25 µg/mL.

As for `NCCn1cc2c(n1)[C@@H](CN)N1C[C@H]2N(OS(=O)(=O)O)C1=O.O=C([O-])C(F)(F)F.[Na+]` (relative stereo) [Ex 5, Sodium trifluoroacetate salt of trans 8-(aminomethyl)-2-(2-amino-ethyl)-4,8-dihydro-5-(sulfooxy)-4,7-methano-7H-pyrazolo[3,4-e][1,3]diazepin-6(5H)-one], the “MIC (μg/mL) 24 h (P, aerug, 1771)” value was found to be 0.25 µg/mL.

For `NC[C@@H]1c2nn(-c3ccccn3)cc2[C@H]2CN1C(=O)N2OS(=O)(=O)O.O=C([O-])C(F)(F)F.[Na+]` (relative stereo) [Ex 6, Sodium trifluoroacetate salt of trans 8-(aminomethyl)-2-(2-pyridinyl)-4,8-dihydro-5-(sulfooxy)-4,7-methano-7H-pyrazolo[3,4-e][1,3]diazepin-6(5H)-one], the “MIC (μg/mL) 24 h (P, aerug, 1771)” value amounted to 8 µg/mL.

For the compound `NC[C@@H]1c2nn(CC(=O)O)cc2[C@H]2CN1C(=O)N2OS(=O)(=O)O.O=C([O-])C(F)(F)F.[Na+]` (relative stereo) [Ex 7, Sodium trifluoroacetate salt of trans-8-(aminomethyl)-5,6-dihydro-6-oxo-5-(sulfooxy)-4H-4,7-methanopyrazolo[3,4-e][1,3]diazepin-2(8H)-acetic acid], the “MIC (μg/mL) 24 h (P, aerug, 1771)” value was determined as 4 µg/mL.

Consider `NC[C@@H]1c2nn(CC(N)=O)cc2[C@H]2CN1C(=O)N2OS(=O)(=O)O.O=C([O-])C(F)(F)F.[Na+]` (relative stereo) [Ex 8, Sodium trifluoroacetate salt of trans-8-(aminomethyl)-5,6-dihydro-6-oxo-5-(sulfooxy)-4H-4,7-methanopyrazolo[3,4-e][1,3]diazepin-2(8H)-acetamide], for which the “MIC (μg/mL) 24 h (P, aerug, 1771)” value stood at 0.5 µg/mL.

Still in this assay, the particulars now being: Pseudomonas aeruginosa 1771 wild type; liquid medium dilution; 24 hrs incubation at 37° C.; read-out: MIC (μg/mL) 24 h (P, aerug, 1771).
With `CC(C)(O/N=C(\C(=O)N[C@@H]1C(=O)N2C(C(=O)[O-])=C(C[n+]3ccccc3)CS[C@H]12)c1csc(N)n1)C(=O)O` [CAZ, Ceftazidime, reference compound], the MIC turned out to be 1 µg/mL (≈ 1.83 µM).

With `C[C@@H](O)[C@H]1C(=O)N2C(C(=O)O)=C(SCCN=CN)C[C@H]12` [IMP, Imipenem, reference compound], the MIC worked out at 1 µg/mL (≈ 3.34 µM).
